The text below walks through data of patent US5541163A, “Renin inhibiting N-(2-amino-2-oxoethyl)butanediamide derivatives” (Bio-Mega/Boehringer Ingelheim Research Inc., priority 1993, dated 1996).

As usually defined, the pIC50 is the negative decadic logarithm of the IC50, by convention in mol/L. Read a low pIC50 as a large IC50.

pIC50: −log10 of the molar value.

This assay addresses T1, human renin (Homo sapiens, UniProt P00797).
T1 construct: A human plasma pool is used as the source of both the substrate (angiotensinogen) and the enzyme (renin); from tissue; host or cells: human plasma pool
T1 sequence (P00797 67-406): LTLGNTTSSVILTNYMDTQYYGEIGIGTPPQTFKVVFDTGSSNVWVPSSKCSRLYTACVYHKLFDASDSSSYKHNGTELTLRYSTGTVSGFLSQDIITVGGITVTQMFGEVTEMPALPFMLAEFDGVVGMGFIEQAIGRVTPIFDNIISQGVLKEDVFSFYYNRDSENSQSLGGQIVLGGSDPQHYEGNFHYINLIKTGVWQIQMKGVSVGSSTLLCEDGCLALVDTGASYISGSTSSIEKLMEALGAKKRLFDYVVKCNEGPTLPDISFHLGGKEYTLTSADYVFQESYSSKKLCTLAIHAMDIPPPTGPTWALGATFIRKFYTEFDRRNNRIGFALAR
Kind of assay: Plasma renin assay (inhibition of human renin, angiotensin I by RIA). It counts as biochemical. The note with it: human plasma pool, pH 6.0, 2 h incubation at 37°. Summed up:
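Pooled human plasma supplies both renin and angiotensinogen; inhibitor in MES/1% HSA buffer (1% DMSO final) incubated 2 h at 37° at pH 6.0. Angiotensin I generated quantified by radioimmunoassay, inhibition relative to no-inhibitor control, IC50 by nonlinear regression.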
For the molecule `CC(C)C[C@H](O)[C@H](O)[C@H](CC1CCCCC1)NC(=O)[C@@H](CC(=O)N(CC(=O)N(C)CCc1ccccn1)Cc1ccoc1)Cc1csc(N)n1` [Compound 89, N^4-(3-furanylmethyl)-N^4 -{2-{methyl-[2-(2-pyridinyl)ethyl]amino}-2-oxoethyl}-N^1-[1(S)-(cyclohexylmethyl)-2(R),3(S)-dihydroxy-5-methylhexyl]-2(R)-[(2-amino-4-thiazolyl)-methyl]butanediamide], the pIC50 was 8.52.

In turn, `CC(C)C[C@H](O)[C@H](O)[C@H](CC1CCCCC1)NC(=O)[C@@H](CC(=O)N(CC(=O)N(C)C)C[C@H](C)c1ccccc1)CC1CC1` [Compound 19, N^4-[2-(dimethylamino)-2-oxoethyl]-N^4-[2(R)-phenylpropyl]-N^1-[1(S)-(cyclohexylmethyl)-2(R),3(S)-dihydroxy-5-methylhexyl]-2(R)-(cyclopropylmethyl)butanediamide] had a pIC50 of 7.16.

For the molecule `CC(C)C[C@H](O)[C@H](O)[C@H](CC1CCCCC1)NC(=O)[C@@H](CC(=O)N(CC(=O)N(C)CCN1CCOCC1)CC1CCCCC1)Cc1csc(N)n1` [Compound 90, N^4-(cyclohexylmethyl)-N^4 -{2-{methyl-(2-morpholinoethyl)amino]-2-oxoethyl}-N^1-[(S)-(cyclohexylmethyl)-2(R),3(S)-dihydroxy-5-methylhexyl]-2(R)-[(2-amino-4-thiazolyl)methyl]-butanediamide], the pIC50 was 9.30.

Regarding `CC(C)C[C@H](O)[C@H](O)[C@H](CC1CCCCC1)NC(=O)[C@@H](CC(=O)N(CC(=O)N(C)CCN1CCOCC1)[C@@H](C)c1ccccc1)Cc1csc(N)n1` [Compound 93, N^4 -{2-[methyl(2-morpholinoethyl)-amino]-2-oxoethyl}-N^4-[1(S)-phenylethyl]-N^1-[1(S)-(cyclohexylmethyl)-2(R),3(S)-dihydroxy-5-methylhexyl]-2(R)-[(2-amino-4-thiazolyl)methyl]-butanediamide], the negative logarithm of the IC50 (pIC50) was 8.70.

`C[C@@H](c1ccccc1)N(CC(=O)N(C)C)C(=O)C[C@@H](Cc1csc(N)n1)C(=O)N[C@@H](CC1CCCCC1)[C@@H](O)[C@@H](O)C1CC1` [Compound 43, N^4-[2-(dimethylamino)-2-oxoethyl]-N^4-[1(S)-phenylethyl]-N^1-[1(S)-(cyclohexylmethyl)-2(R),3(S)-dihydroxy-(3-cyclopropylpropyl)]-2(R)-[(2-amino-4-thiazolyl)methyl]-butanediamide] gave a pIC50 of 8.17.

Take `C[C@@H](c1ccccc1)N(CC(=O)N(C)C)C(=O)C[C@@H](CC1CC1)C(=O)N[C@@H](CC1CCCCC1)[C@@H](O)[C@@H]1CC(C)(C)N(C)C1=O` [Compound 42, N^4-[2-(dimethylamino)-2-oxoethyl]-N^4-[1(S)-phenylethyl]-N^1-[1(S)-(cyclohexylmethyl)-2(S)-hydroxy-2-(1,5,5-trimethyl-2-oxopyrrolidin-3(S)-yl)ethyl]-2(R)-(cyclopropylmethyl)butanediamide]: the pIC50 was 7.26.

As for `CC(C)C[C@H](O)[C@H](O)[C@H](CC1CCCCC1)NC(=O)[C@@H](CC(=O)N(CC(=O)N(C)C(C)(C)C)Cc1ccccc1)CC1CC1` [Compound 5, N^4-benzyl-N^4 -{2-[methyl(1,1-dimethylethyl)amino]-2-oxoethyl}-N^1-[1(S)-(cyclohexylmethyl)-2(R),3(S)-dihydroxy-5-methylhexyl]-2(R)-(cyclopropylmethyl)butanediamide], the pIC50 is 6.54.

Regarding `CC(C)C[C@H](O)[C@H](O)[C@H](CC1CCCCC1)NC(=O)[C@@H](CC(=O)N(CC(=O)N(C)C)CC1CCCCC1)Cc1csc(N)n1` [Compound 48, N^4-(cyclohexylmethyl)-N^4-[2-(dimethylamino)-2-oxoethyl]-N^1-[1(S)-(cyclohexylmethyl)-2(R),3(S)-dihydroxy-5-methylhexyl]-2(R)-[(2-amino-4-thiazolyl)methyl]butanediamide], the negative-log IC50 (pIC50) was 9.05.

In turn, `CC(C)C[C@H](O)[C@H](O)[C@H](CC1CCCCC1)NC(=O)[C@@H](CC(=O)N(CC(=O)N(C)CCc1ccccn1)Cc1ccccc1F)Cc1csc(N)n1` [Compound 82, N^4-[(2-fluorophenyl)methyl]-N^4 -{2-{methyl[2-(2-pyridinyl)ethyl]-amino}-2-oxoethyl}-N^1-[1(S)-(cyclohexylmethyl)-2(R),3(S)-dihydroxy-5-methylhexyl]-2(R)-[(2-amino-4-thiazolyl)methyl]butanediamide] gave a pIC50 of 8.52.

On to `CC(C)C[C@H](O)[C@H](O)[C@H](CC1CCCCC1)NC(=O)[C@@H](CC(=O)N(CC(=O)N(C)CCc1ccccn1)Cc1ccccc1)Cc1csc(N)n1` [Compound 57, N^4-benzyl-N^4 -{2-{methyl[2-(2-pyridinyl)ethyl]amino}-2-oxoethyl}-N^1-[1(S)-(cyclohexylmethyl)-2(R),3(S)-dihydroxy-5-methylhexyl]-2(R)-[(2-amino-4-thiazolyl)methyl]-butanediamide], for which the pIC50 is 9.00.

`CC(C)C[C@H](O)[C@H](O)[C@H](CC1CCCCC1)NC(=O)[C@@H](CC(=O)N(CC(=O)N1CCOCC1)CC1CCCC1)Cc1csc(N)n1` [Compound 80, N^4-(cyclopentylmethyl)-N^4-(2-morpholino-2-oxoethyl)-N^1-[1(S)-(cyclohexylmethyl)-2(R),3(S)-dihydroxy-5-methylhexyl]-2(R)-[(2-amino-4-thiazolyl)methyl]butanediamide]: the pIC50 was 8.70.

For the molecule `CC(C)OC(=O)[C@H](O)[C@H](CC1CCCCC1)NC(=O)[C@@H](CC(=O)N(CC(=O)N(C)C)[C@@H](C)c1ccccc1)Cc1csc(N)n1` [Compound 45, N^4-[2-(dimethylamino)-2-oxoethyl]-N^4-[1(S)-phenylethyl]-N^4-[1(S)-(cyclohexylmethyl)-2(R)-hydroxy-3-(1-methylethoxy)-3-oxopropyl]-2(R)-[(2-amino-4-thiazolyl)methyl]-butanediamide], the pIC50 was 7.80.

On to `CC(C)C[C@H](O)[C@H](O)[C@H](CC1CCCCC1)NC(=O)[C@@H](CC(=O)N(CC(=O)N(C)CCc1ccccn1)CC1CCCC1)Cc1csc(N)n1` [Compound 71, N^4-(cyclopentylmethyl)-N^4 -{2-{methyl[2-(2-pyridinyl)ethyl]-amino}-2-oxoethyl]-N^1-[1(S)-(cyclohexylmethyl)-2(R),3(S)-dihydroxy-5-methylhexyl]-2(R)-[(2-amino-4-thiazolyl)methyl]butanediamide], for which the pIC50 was 9.00.

As to `CC(C)C[C@H](O)[C@H](O)[C@H](CC1CCCCC1)NC(=O)[C@@H](CC(=O)N(CC(=O)N(C)CCc1ccccn1)Cc1nccs1)Cc1csc(N)n1` [Compound 86, N^4 -{2-{methyl[2-(2-pyridinyl)ethyl]-amino}-2-oxoethyl}-N^4-(2-thiazolylmethyl)-N^1-[1(S)-(cyclohexylmethyl)-2(R),3(S)-dihydroxy-5-methylhexyl]-2(R)-[(2-amino-4-thiazolyl)methyl]-butanediamide], the pIC50 is 8.22.

Molecule `Cc1ccsc1CN(CC(=O)N(C)CCc1ccccn1)C(=O)C[C@@H](Cc1csc(N)n1)C(=O)N[C@@H](CC1CCCCC1)[C@@H](O)[C@@H](O)CC(C)C` [Compound 88, N^4 -{2-{methyl[2-(2-pyridinyl)ethyl]-amino}-2-oxoethyl}-N^4-[(3-methyl-2-thienyl)methyl]-N^4-[1(S)-(cyclohexylmethyl)-2(R),3(S)-dihydroxy-5-methylhexyl]-2(R)-[(2-amino-4-thiazolyl)methyl]butanediamide] showed a pIC50 of 8.40.

The molecule `COCOC1CCN(C(=O)CN(CC2CCCCC2)C(=O)C[C@@H](Cc2csc(N)n2)C(=O)N[C@@H](CC2CCCCC2)[C@@H](O)[C@@H](O)CC(C)C)CC1` [Compound 62, N^4 -{2-[4-(methoxymethoxy)piperidinyl]-2-oxoethyl}-N^4-(cyclohexylmethyl)-N^1-[1(S)-(cyclohexylmethyl)-2(R),3(S)-dihydroxy-5-methylhexyl]-2(R)-[(2-amino-4-thiazolyl)methyl]-butanediamide] showed a pIC50 of 8.52.

Turning to `CC(C)C[C@H](O)[C@H](O)[C@H](CC1CCCCC1)NC(=O)[C@@H](CC(=O)N(CCC1CCCC1)CC(=O)N(C)CCc1ccccn1)Cc1csc(N)n1` [Compound 87, N^4-(2-cyclopentylethyl)-N^4 -{2-{methyl[2-(2-pyridinyl)ethyl]amino}-2-oxoethyl}-N^1-[1(S)-(cyclohexylmethyl)-2(R),3(S)-dihydroxy-5-methylhexyl]-2(R)-[(2-amino-4-thiazolyl)-methyl]butanediamide], the negative logarithm of the IC50 (pIC50) was 8.70.
